Measurements reported in US10611759B2, “Glutaminase inhibitors” (Rhizen Pharmaceuticals SA, priority 2014, dated 2020).
Like-named read-outs stand apart in the source and are kept apart here.

Tests used:
[1] = molecular target: T1, Glutaminase(Brain) (Mus musculus, UniProt D3Z7P3); test: Glutaminase enzyme activity using glutaminase enzyme from mice brain/kidney homogenate (Nessler's reagent, ammonia); type: biochemical; settings: for inhibition at 0.1 µM: read-out: Glutaminase(Brain) activity % inhibition 0.1 μM; for inhibition at 1 µM: read-out: Glutaminase(Brain) activity % inhibition @1 μM
T1 sequence (D3Z7P3 55-674): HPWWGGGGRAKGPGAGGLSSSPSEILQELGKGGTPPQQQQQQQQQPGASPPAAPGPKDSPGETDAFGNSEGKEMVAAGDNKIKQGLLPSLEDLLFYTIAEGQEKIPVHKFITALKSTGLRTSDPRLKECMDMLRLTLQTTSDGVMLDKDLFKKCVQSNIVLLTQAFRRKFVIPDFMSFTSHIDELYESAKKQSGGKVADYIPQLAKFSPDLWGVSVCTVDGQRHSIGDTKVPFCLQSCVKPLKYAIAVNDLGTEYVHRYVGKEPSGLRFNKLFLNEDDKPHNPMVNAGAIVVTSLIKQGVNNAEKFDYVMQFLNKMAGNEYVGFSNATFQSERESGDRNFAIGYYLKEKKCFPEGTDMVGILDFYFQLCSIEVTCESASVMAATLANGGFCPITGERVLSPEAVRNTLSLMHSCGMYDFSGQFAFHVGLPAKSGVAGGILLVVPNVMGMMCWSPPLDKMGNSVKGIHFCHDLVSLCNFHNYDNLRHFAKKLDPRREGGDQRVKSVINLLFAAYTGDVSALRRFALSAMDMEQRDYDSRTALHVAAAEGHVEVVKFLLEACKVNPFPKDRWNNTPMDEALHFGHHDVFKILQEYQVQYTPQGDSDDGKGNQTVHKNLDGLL
Experimental: Assay 3: Determination of Glutaminase Enzyme Activity Using Glutaminase Enzyme from Mice Brain/Kidney
Step 1: Preparation of Tissue Homogenates:
Male Balb/c mice were administered 0.28 M ammonium chloride in drinking water for 7 days. The animals were sacrificed and brain/kidney organs collected on dry ice. […] The tissue was homogenized and supernatants were stored at −80° C. until the enzyme assay was performed.
Aim: Compounds were assessed for their ability to inhibit the enzymatic activity of L-glutaminase present in mice brain/kidney homogenate.
Protocol: The assay was performed using a colorimetric method using Nessler's Reagent by quantifying the amount of ammonia formed as a by product during the enzymatic conversion of L-glutamine to glutamate. In the routine assay, 16 μl of tissue homogenate is added to 33 μl of Tris-Hcl phosphate buffer (pH 8) along with 1 μl of DMSO/test compound containing the desired final concentration and vortexed briefly. 50 μl of 20 mM L-glutamine Tris buffer is added to start the reaction and incubated for 15 minutes at 37° C. The ammonia formed is detected by adding 20 μl of reaction mixture to cold water in a 96 well plate followed by 20 μl of Nessler's reagent. The colour developed is measured at 450 nm. Data Analysis: Activity of the test compound is reported as % inhibition and the data is analyzed using Graphpad Prism (Graphpad software; San Diego Calif.) for IC50 determination.

[2] = tested on: MDA-MB-231; test: In vitro cell proliferation assay (MTT), MDA-MB-231; type: cell-based; settings: Homo sapiens, 72 hours
Experimental: (§1) Assay 4: In Vitro Cell Proliferation Assay in Cancer Cell Lines
(§2) Growth inhibition assays were carried out using 10% FBS supplemented media. Cells were seeded at a concentration of 5000-20,000 cells/well in a 96-well plate. Test compounds at a concentration range from 0.01 to 10000 nM were added after 24 hours. Growth was assessed using the 3-[4,5-dimethylthiazol-2-yl]-2,5-diphenyltetrazolium bromide (MTT) dye reduction test at 0 h (prior to the addition of the test compound) and 72 hours after the addition of test compound. Absorbance was read on a Fluostar Optima (BMG Labtech, Germany) at a wave length of 450 nm. Data were analysed using GraphPad Prism and percent inhibition due to the test compound compared to the control was calculated accordingly.

[3] = tested on: A549; test: In vitro cell proliferation assay (MTT), A549; type: cell-based; settings: Homo sapiens, 72 hours
Experimental: as §1, §2

[4] = tested on: HCT116; test: In vitro cell proliferation assay (MTT), HCT116; type: cell-based; settings: Homo sapiens, HCT-116, 72 hours
Experimental: as §1, §2

[5] = tested on: Daudi; test: In vitro cell proliferation assay (MTT), Daudi; type: cell-based; settings: Homo sapiens, 72 hours
Experimental: as §1, §2

[6] = tested on: Rajii; test: In vitro cell proliferation assay (MTT), Rajii; type: cell-based; settings: 72 hours
Experimental: as §1, §2

inhibition at 0.1 µM ([1]; 0.1 μM, mice brain homogenate) | inhibition at 1 µM ([1]; 1 μM, mice brain homogenate) | GI50 [2] | Structure (SMILES) | further results
< 25% | < 25% | – | O=C(Cc1ccccn1)Nc1ccc(N2CCCC(c3nnc(NC(=O)Cc4cccc(OC(F)(F)F)c4)s3)C2)cn1 (centres unmarked) [Example-7, 2-(Pyridin-2-yl)-N-(5-(3-(5-(2-(3-(trifluoromethoxy)phenyl)acetamido)-1,3,4-thiadiazol-2-yl)piperidin-1-yl)pyridin-2-yl)acetamide] | melting point: 151 to 153 °C
< 25% | 50 to 75% | 250 to 500 nM | CS(=O)(=O)Nc1cccc(CC(=O)Nc2nnc(C3CCN(c4ccc(NC(=O)Cc5cccc(OC(F)(F)F)c5)nn4)CC3)s2)c1 [Example-11, 2-(3-(Methylsulfonamido)phenyl)-N-(5-(1-(6-(2-(3-(trifluoromethoxy)phenyl)acetamido)pyridazin-3-yl)piperidin-4-yl)-1,3,4-thiadiazol-2-yl)acetamide] | –
50 to 75% | 75 to 100% | < 100 nM | O=C(Cc1cccc(OC(F)(F)F)c1)Nc1ccc(N2CCC(c3nnc(NC(=O)Cc4cnccn4)s3)CC2)nn1 [Example-15, 2-(Pyrazin-2-yl)-N-(5-(1-(6-(2-(3-(trifluoromethoxy)phenyl)acetamido)pyridazin-3-yl)piperidin-4-yl)-1,3,4-thiadiazol-2-yl)acetamide] | –
– | – | < 100 nM | O=C(Cc1ccccn1)Nc1ccc(N2CCC(c3nnc(NC(=O)Cc4cccc(OC(F)(F)F)c4)s3)CC2)nn1 [Example-17, 2-(Pyridin-2-yl)-N-(6-(4-(5-(2-(3-(trifluoromethoxy)phenyl)acetamido)-1,3,4-thiadiazol-2-yl)piperidin-1-yl)pyridazin-3-yl)acetamide] | inhibition at 0.1 µM [1]: 75 to 100%; inhibition at 1 µM [1]: 75 to 100%
75 to 100% | 75 to 100% | < 100 nM | O=C(Cc1cccnc1)Nc1ccc(N2CCC(c3nnc(NC(=O)Cc4cccc(OC(F)(F)F)c4)s3)CC2)nn1 [Example-18, 2-(Pyridin-3-yl)-N-(6-(4-(5-(2-(3-(trifluoromethoxy)phenyl)acetamido)-1,3,4-thiadiazol-2-yl)piperidin-1-yl)pyridazin-3-yl)acetamide] | –
50 to 75% | 75 to 100% | – | O=C(Cc1ccccn1)Nc1ccc(N2CCC(c3nnc(NC(=O)Cc4cccc(Cl)c4)s3)CC2)nn1 [Example-35, 2-(3-Chlorophenyl)-N-(5-(1-(6-(2-(pyridin-2-yl)acetamido)pyridazin-3-yl)piperidin-4-yl)-1,3,4-thiadiazol-2-yl)acetamide] | –

The next lines start with the compound.

Structure (SMILES) | inhibition at 0.1 µM ([1]; 0.1 μM, mice brain homogenate) | inhibition at 1 µM ([1]; 1 μM, mice brain homogenate) | GI50 [2] | further results
O=C(Cc1cccc(OC(F)(F)F)c1)Nc1ccc(N2CCCC(c3nnc(NC(=O)Cc4cccnc4)s3)C2)cn1 (racemic) [Example 3, (RS)-2-(Pyridin-3-yl)-N-(5-(1-(6-(2-(3-(trifluoromethoxy)phenyl)acetamido)pyridin-3-yl)piperidin-3-yl)-1,3,4-thiadiazol-2-yl)acetamide] | 25 to 50% | 50 to 75% | 1000 to 3000 nM | –
O=C(Cc1cccc(OC(F)(F)F)c1)Nc1ccc(N2CCC(c3nnc(NC(=O)Cc4cccnc4)s3)CC2)cn1 [Example-4, 2-(Pyridin-3-yl)-N-(5-(1-(6-(2-(3-(trifluoromethoxy)phenyl)acetamido)pyridin-3-yl)piperidin-4-yl)-1,3,4-thiadiazol-2-yl)acetamide] | 25 to 50% | 50 to 75% | 250 to 500 nM | –
O=C(Cc1cccc(OC(F)(F)F)c1)Nc1ccc(N2CCC(c3nnc(NC(=O)Cc4ccccn4)s3)CC2)nn1 [Example-8, 2-(pyridin-2-yl)-N-(5-(1-(6-(2-(3-(trifluoromethoxy)phenyl)acetamido)pyridazin-3-yl)piperidin-4-yl)-1,3,4-thiadiazol-2-yl)acetamide] | – | – | – | GI50 [3]: 100 to 250 nM; GI50 [4]: 250 to 500 nM; GI50 [5]: < 100 nM; inhibition at 0.1 µM [1]: 75 to 100%; inhibition at 1 µM [1]: 75 to 100%; GI50 [6]: < 100 nM
O=C(Cc1cccc(OC(F)(F)F)c1)Nc1ccc(N2CCCC(c3nnc(NC(=O)Cc4ccccn4)s3)C2)nn1 (centres unmarked) [Example-9, 2-(Pyridin-2-yl)-N-(5-(1-(6-(2-(3-(trifluoromethoxy)phenyl)acetamido)pyridazin-3-yl)piperidin-3-yl)-1,3,4-thiadiazol-2-yl)acetamide] | – | – | 100 to 250 nM | inhibition at 0.1 µM [1]: 50 to 75%; inhibition at 1 µM [1]: 75 to 100%
O=C(Cc1cccc(OC(F)(F)F)c1)Nc1ccc(N2CCC(c3nnc(NC(=O)Cc4cccnc4)s3)CC2)nn1 [Example-10, 2-(Pyridin-3-yl)-N-(5-(1-(6-(2-(3-(trifluoromethoxy)phenyl)acetamido)pyridazin-3-yl)piperidin-4-yl)-1,3,4-thiadiazol-2-yl)acetamide] | 50 to 75% | 75 to 100% | 100 to 250 nM | –
O=C(Cc1ccccc1Cl)Nc1ccc(N2CCC(c3nnc(NC(=O)Cc4ccccn4)s3)CC2)nn1 [Example-12, 2-(2-Chlorophenyl)-N-(6-(4-(5-(2-(pyridin-2-yl)acetamido)-1,3,4-thiadiazol-2-yl)piperidin-1-yl)pyridazin-3-yl)acetamide] | 50 to 75% | 75 to 100% | < 100 nM | –
O=C(Cc1ccccc1F)Nc1ccc(N2CCC(c3nnc(NC(=O)Cc4ccccn4)s3)CC2)nn1 [Example-14, 2-(2-Fluorophenyl)-N-(6-(4-(5-(2-(pyridin-2-yl)acetamido)-1,3,4-thiadiazol-2-yl)piperidin-1-yl)pyridazin-3-yl)acetamide] | 75 to 100% | 75 to 100% | < 100 nM | –
O=C(Cc1ccccc1F)Nc1ccc(N2CCC(c3nnc(NC(=O)Cc4cnccn4)s3)CC2)nn1 [Example-33, 2-(2-Fluorophenyl)-N-(6-(4-(5-(2-(pyrazin-2-yl)acetamido)-1,3,4-thiadiazol-2-yl)piperidin-1-yl)pyridazin-3-yl)acetamide] | 25 to 50% | 50 to 75% | – | –
O=C(Cc1cccc(OC(F)(F)F)c1)Nc1ccc(N2CCC(c3nnc(NC(=O)Cc4cccc(N5CCC5)c4)s3)CC2)nn1 [Example-34, 2-(3-(Azetidin-1-yl)phenyl)-N-(5-(1-(6-(2-(3-(trifluoromethoxy)phenyl)acetamido)pyridazin-3-yl)piperidin-4-yl)-1,3,4-thiadiazol-2-yl)acetamide] | 25 to 50% | 50 to 75% | – | –
O=C(Cc1cccc(OC(F)(F)F)c1)Nc1ccc(N2CCC(c3nnc(NC(=O)C(CO)c4ccccc4)s3)CC2)nn1 (centres unmarked) [Example-36, 3-Hydroxy-2-phenyl-N-(5-(1-(6-(2-(3-(trifluoromethoxy)phenyl)acetamido)pyridazin-3-yl)piperidin-4-yl)-1,3,4-thiadiazol-2-yl)propanamide] | 25 to 50% | 50 to 75% | – | –
